Measured values published in US20240124460A1, “METHODS AND COMPOSITIONS FOR TARGETED PROTEIN DEGRADATION” (Ranok Therapeutics (Hangzhou) Co. Ltd., priority 2020, published 2024).
Read-outs that look alike come from different tables or passages of the source.

Assays:
[1] = tested on: U-87 MG human glioblastoma; experiment: U87 MG CCK-8 proliferation assay; format: cell-based; conditions: U-87 MG cells, read-out: U87MG CCK-8
Outline: (§1)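 Cells grown per ATCC recommendations were treated with 3-fold serial compound dilutions from 20 μM to 1.02 nM. CCK-8 absorbance was converted to % inhibition against DMSO-treated cells, with cell-free medium containing DMSO as the blank.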

[2] = tested on: MV-4-11 human acute myeloid leukemia; experiment: MV-4-11 CCK-8 proliferation assay; format: cell-based; conditions: MV-4-11 cells, 72 hr
Outline: as §1

MAPK7 = MAPK7 (Homo sapiens, UniProt Q13164); experiment: MAPK7 kinase assay (ADP-Glo); format: biochemical; set-up: purchased Carna Biosciences #04-146; conditions: ATP 340 μM
Protocol: The inhibition of MAPK7 kinase activity by test compounds was measured by the ADP-Glo Kinase Assay (Promega, #V6930), following the manufacturer's instructions, except as noted. 3-fold serial dilutions of each test compound were prepared ranging from 50 μM to 2.54 nM. Also, as a positive control, a 4-fold serial dilution of the MAPK7 inhibitor, XMD17-109 (MedChemExpress, #HY-15665) was prepared ranging from 10 μM to 0.04 nM. In brief, in 384-well plates, test compounds were added to the kinase reaction mix containing recombinant MAPK7 protein (Carna Biosciences, #04-146; 20 nM final concentration), myelin basic protein (SignalChem Biotech, #M42-54G; 0.1 mg/ml final concentration) and ATP (340 μM final concentration), then mixed by shaking and incubated with ADP-Glo Reagent and Kinase Detection Reagent. Luminescence was measured on a BioTek plate reader.
Lumpositive: The average ratio for 10 wells of positive controls (10 μM XMD17-109) across the plate.
Lumvehicle: The average ratio for 10 wells of negative controls (0.5% DMSO) across the plate.

HSP90α protein = biological target: T1, HSP90α protein (Homo sapiens, UniProt P07900); experiment: HSP90α-binding FP (BODIPY) assay; conditions: FP competition with BODIPY-labeled RNK04010
T1 construct: purchased BPS Bioscience #50298
Outline: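 Fluorescence polarization measured competition with N-terminal human HSP90α, using either FITC-geldanamycin or BODIPY-labelled triazolone RNK04010 as tracer (5 nM final each). Compounds were tested in 2.5-fold dilutions from 20 μM to 5.2 nM, with incubation at 25 °C for 120 min (FITC) or 300 min (BODIPY).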

ERBB2 = ERBB2 (HER2) flow cytometry protein degradation assay in BT-474 cells; format: cell-based, human; conditions: DC50, BT-474 cells, 24 hr
Outline: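 BT-474 cells trypsinised after compound treatment and stained with PE-conjugated anti-ERBB2 antibody, 30 min at 25° C in the dark, then fixed in 1% paraformaldehyde for flow cytometry. % inhibition = 100−(D−B)/(S−B)*100, using treated, untreated-stained and unstained cell fluorescence.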

Chain of MAPK7 (Q13164 whole entry): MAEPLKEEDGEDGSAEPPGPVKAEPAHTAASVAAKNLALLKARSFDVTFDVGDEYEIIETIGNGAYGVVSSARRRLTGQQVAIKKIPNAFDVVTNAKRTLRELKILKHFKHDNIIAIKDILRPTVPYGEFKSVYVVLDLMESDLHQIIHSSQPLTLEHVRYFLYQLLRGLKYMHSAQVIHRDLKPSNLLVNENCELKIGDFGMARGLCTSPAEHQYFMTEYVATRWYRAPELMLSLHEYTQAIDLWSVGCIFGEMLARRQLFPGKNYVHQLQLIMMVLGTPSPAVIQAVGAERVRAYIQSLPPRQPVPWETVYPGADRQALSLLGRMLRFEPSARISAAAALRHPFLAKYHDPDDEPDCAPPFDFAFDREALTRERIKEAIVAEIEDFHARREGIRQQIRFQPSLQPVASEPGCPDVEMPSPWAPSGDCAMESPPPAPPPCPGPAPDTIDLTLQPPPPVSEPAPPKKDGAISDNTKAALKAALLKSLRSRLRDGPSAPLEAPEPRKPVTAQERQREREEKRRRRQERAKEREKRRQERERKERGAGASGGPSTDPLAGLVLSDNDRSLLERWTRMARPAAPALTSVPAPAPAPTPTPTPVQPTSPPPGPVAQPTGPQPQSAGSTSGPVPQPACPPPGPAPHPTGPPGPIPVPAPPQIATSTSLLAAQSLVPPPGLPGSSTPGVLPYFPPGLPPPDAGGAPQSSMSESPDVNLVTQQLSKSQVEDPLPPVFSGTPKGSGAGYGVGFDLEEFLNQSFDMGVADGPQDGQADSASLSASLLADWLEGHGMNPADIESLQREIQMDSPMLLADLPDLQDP

`CCOc1cc(N2CCC(C(=O)N3CCC(N4CCN(Cc5ccc(-n6c(O)nnc6-c6cc(C(C)C)c(O)cc6O)cc5)CC4)CC3)CC2)ccc1Nc1ncc2c(n1)N(C)c1ccccc1C(=O)N2C.Cl` [Compound 042, 2-((4-(4-(4-(4-(4-(3-(2,4-dihydroxy-5-isopropylphenyl)-5-hydroxy-4H-1,2,4-triazol-4-yl)benzyl)piperazin-1-yl)piperidine-1-carbonyl)piperidin-1-yl)-2-ethoxyphenyl)amino)-5,11-dimethyl-5H-benzo[e]pyrimido[5,4-b][1,4]diazepin-6(11H)-one] was tested, and the EC50 ([1]; 72 hr) was less than 100 nM, the EC50 [2] was less than 100 nM and the IC50 (MAPK7) was greater than 1000 nM. For the same molecule, the IC50 (HSP90α protein) was less than 100 nM and the ERBB2 degradation (ERBB2) was “B (DC50 = 100-1000 nM)”.

`CCOc1cc(N2CCC(C(=O)N3CCN(Cc4ccc(-n5c(O)nnc5-c5cc(C(C)C)c(O)cc5O)cc4)CC3)CC2)ccc1N(C)c1ncc2c(n1)N(C)c1ccccc1C(=O)N2C` [Compound 047, 2-((4-(4-(4-(4-(3-(2,4-dihydroxy-5-isopropylphenyl)-5-hydroxy-4H-1,2,4-triazol-4-yl)benzyl)piperazine-1-carbonyl)piperidin-1-yl)-2-ethoxyphenyl)(methyl)amino)-5,11-dimethyl-5,11-dihydro-6H-benzo[e]pyrimido[5,4-b][1,4]diazepin-6-one] was tested, and the EC50 ([1]; Homo sapiens, U-87 MG, 72 h) was 100 to 1000 nM, the EC50 ([2]; Homo sapiens, MV4-11) was less than 100 nM and the IC50 (MAPK7) was greater than 1000 nM. For the same molecule, the IC50 (HSP90α protein) was 100 to 1000 nM and the ERBB2 degradation (ERBB2) was “B (DC50 = 100-1000 nM)”.

`CCNC(=O)c1nnc(-c2cc(CC)c(O)cc2O)n1-c1ccc(CN2CCN(CC3CCN(C(=O)C4CCN(c5ccc(Nc6ncc7c(n6)N(S(C)(=O)=O)c6ccccc6C(=O)N7C)c(OCC)c5)CC4)CC3)CC2)cc1.Cl` [Compound 096, 4-(4-((4-((1-(1-(3-ethoxy-4-((5-methyl-11-(methylsulfonyl)-6-oxo-6,11-dihydro-5H-benzo[e]pyrimido[5,4-b][1,4]diazepin-2-yl)amino)phenyl)piperidine-4-carbonyl)piperidin-4-yl)methyl)piperazin-1-yl)methyl)phenyl)-N-ethyl-5-(5-ethyl-2,4-dihydroxyphenyl)-4H-1,2,4-triazole-3-carboxamide] was tested, and the EC50 ([1]; Homo sapiens, U-87 MG, 72 h) was less than 100 nM, the EC50 ([2]; Homo sapiens, MV4-11) was less than 100 nM and the IC50 (MAPK7) was less than 100 nM. The IC50 (HSP90α protein) was less than 100 nM and the ERBB2 degradation (ERBB2) was “B (DC50 = 100-1000 nM)”.

Molecule `CCOc1cc(N2CCC(C(=O)N3CCC(CN4CCN(Cc5ccc(-n6c(O)nnc6-c6cc(C(C)C)c(O)cc6O)cc5)CC4)CC3)CC2)ccc1N(CC)c1ncc2c(n1)N(S(C)(=O)=O)c1ccccc1C(=O)N2C` [Compound 099, 2-((4-(4-(4-((4-(4-(3-(2,4-dihydroxy-5-isopropylphenyl)-5-hydroxy-4H-1,2,4-triazol-4-yl)benzyl)piperazin-1-yl)methyl)piperidine-1-carbonyl)piperidin-1-yl)-2-ethoxyphenyl)(ethyl)amino)-5-methyl-11-(methylsulfonyl)-5,11-dihydro-6H-benzo[e]pyrimido[5,4-b][1,4]diazepin-6-one] has an EC50 ([1]; Homo sapiens, U-87 MG, 72 h) of less than 100 nM, an EC50 ([2]; Homo sapiens, MV4-11) of less than 100 nM and an IC50 (MAPK7) greater than 1000 nM. For the same molecule, the IC50 (HSP90α protein) was less than 100 nM and the ERBB2 degradation (ERBB2) was “B (DC50 = 100-1000 nM)”.

For `CCOc1cc(N2CCC(C(=O)N3CCC(COc4ccc(Nc5cc(-n6nc(C(F)(F)F)c7c6CC(C)(C)CC7=O)ccc5C(N)=O)cc4)CC3)CC2)ccc1Nc1ncc2c(n1)N(S(C)(=O)=O)c1ccccc1C(=O)N2C` [Compound 110, 4-(6,6-dimethyl-4-oxo-3-(trifluoromethyl)-4,5,6,7-tetrahydro-1H-indazol-1-yl)-2-((4-((1-(1-(3-ethoxy-4-((5-methyl-11-(methylsulfonyl)-6-oxo-6,11-dihydro-5H-benzo[e]pyrimido[5,4-b][1,4]diazepin-2-yl)amino)phenyl)piperidine-4-carbonyl)piperidin-4-yl)methoxy)phenyl)amino)benzamide], the EC50 ([1]; Homo sapiens, U-87 MG, 72 h) was greater than 1000 nM, the EC50 ([2]; Homo sapiens, MV4-11) was greater than 1000 nM and the IC50 (MAPK7) was greater than 1000 nM. It also gave an IC50 (HSP90α protein) greater than 1000 nM.

For `CCOc1cc(N2CCC(C(=O)NCCOCCNC(=O)O[C@H]3CC[C@H](Nc4cc(-n5nc(C(F)(F)F)c6c5CC(C)(C)CC6=O)ccc4C#N)CC3)CC2)ccc1Nc1ncc2c(n1)N(S(C)(=O)=O)c1ccccc1C(=O)N2C` [Compound 111, (1R,4R)-4-((2-((12-azanylidene)-l3-methyl)-5-(6,6-dimethyl-4-oxo-3-(trifluoromethyl)-4,5,6,7-tetrahydro-1H-indazol-1-yl)phenyl)amino)cyclohexyl (2-(2-(1-(3-ethoxy-4-((5-methyl-11-(methylsulfonyl)-6-oxo-6,11-dihydro-5H-benzo[e]pyrimido[5,4-b][1,4]diazepin-2-yl)amino)phenyl)piperidine-4-carboxamido)ethoxy)ethyl)carbamate], the EC50 ([1]; Homo sapiens, U-87 MG, 72 h) was greater than 1000 nM, the EC50 ([2]; Homo sapiens, MV4-11) was greater than 1000 nM and the IC50 (MAPK7) was greater than 1000 nM. For the same molecule, the IC50 (HSP90α protein) was greater than 1000 nM.

`CCOc1cc(N2CCC(C(=O)N3CCC(CN4CCN(Cc5ccc(-n6c(O)nnc6-c6cc(C(C)C)c(O)cc6O)cc5)CC4)CC3)CC2)ccc1N(CC)c1ncc2c(n1)N(C)c1ccccc1C(=O)N2C` [Compound 133, 2-((4-(4-(4-((4-(4-(3-(2,4-dihydroxy-5-isopropylphenyl)-5-hydroxy-4H-1,2,4-triazol-4-yl)benzyl)piperazin-1-yl)methyl)piperidine-1-carbonyl)piperidin-1-yl)-2-ethoxyphenyl)(ethyl)amino)-5,11-dimethyl-5,11-dihydro-6H-benzo[e]pyrimido[5,4-b][1,4]diazepin-6-one] gave an EC50 ([1]; Homo sapiens, U-87 MG, 72 h) of 100 to 1000 nM, an EC50 ([2]; Homo sapiens, MV4-11) of less than 100 nM and an IC50 (MAPK7) greater than 1000 nM. The IC50 (HSP90α protein) was less than 100 nM.

In the case of `CCNC(=O)c1nnc(-c2cc(CC)c(O)cc2O)n1-c1ccc(CN2CCN(CC3CCN(C(=O)C4CCN(c5ccc(N(CC)c6ncc7c(n6)N(S(C)(=O)=O)c6ccccc6C(=O)N7C)c(OCC)c5)CC4)CC3)CC2)cc1` [Compound 135, 4-(4-((4-((1-(1-(3-ethoxy-4-(ethyl(5-methyl-11-(methylsulfonyl)-6-oxo-6,11-dihydro-5H-benzo[e]pyrimido[5,4-b][1,4]diazepin-2-yl)amino)phenyl)piperidine-4-carbonyl)piperidin-4-yl)methyl)piperazin-1-yl)methyl)phenyl)-N-ethyl-5-(5-ethyl-2,4-dihydroxyphenyl)-4H-1,2,4-triazole-3-carboxamide], the EC50 ([1]; Homo sapiens, U-87 MG, 72 h) is reported as 100 to 1000 nM, the EC50 ([2]; Homo sapiens, MV4-11) is reported as less than 100 nM and the IC50 (MAPK7) is reported as greater than 1000 nM. For the same molecule, the IC50 (HSP90α protein) was less than 100 nM.

“(1R,4R)-4-((2-((12-azanylidene)-l3-methyl)-5-(6,6-dimethyl-4-oxo-3-(trifluoromethyl)-4,5,6,7-tetrahydro-1H-indazol-1-yl)phenyl)amino)cyclohexyl (2-(2-(1-(3-ethoxy-4-(ethyl(5-methyl-11-(methylsulfonyl)-6-oxo-6,11-dihydro-5H-benzo[e]pyrimido[5,4-b][1,4]diazepin-2-yl)amino)phenyl)piperidine-4-carboxamido)ethoxy)ethyl)carbamate [Compound 113]” gave an EC50 ([1]; 72 hr) greater than 1000 nM, an EC50 [2] greater than 1000 nM and an IC50 (MAPK7) greater than 1000 nM. It also gave an IC50 (HSP90α protein) greater than 1000 nM.

“(1R,4R)-4-((2-cyano-5-(6,6-dimethyl-4-oxo-3-(trifluoromethyl)-4,5,6,7-tetrahydro-1H-indazol-1-yl)phenyl)amino)cyclohexyl (2-(2-(1-(4-((5,11-dimethyl-6-oxo-6,11-dihydro-5H-benzo[e]pyrimido[5,4-b][1,4]diazepin-2-yl)amino)-3-ethoxyphenyl)piperidine-4-carboxamido)ethoxy)ethyl)carbamate [Compound 109]” gave an EC50 ([1]; 72 hr) greater than 1000 nM, an EC50 [2] greater than 1000 nM and an IC50 (MAPK7) greater than 1000 nM. For the same molecule, the IC50 (HSP90α protein) was greater than 1000 nM.
